ChEMBL document CHEMBL1201862, “PubChem BioAssay data set” (2004)
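These data come from cells grown in 96-well plates and exposed to compound for 48 hours at five concentrations. GI50 is the concentration that inhibits growth by half.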 Active and inactive are the calls of the source. Cut-off read from the data, not from the text of the source: active = GI50 up to about 1.1 µM and inactive = higher.

What was measured:
Test in all cases: inhibition of tumour cell growth, NCI panel, 48 h
[1] = tested on: SK-MEL-28
[2] = tested on: U-251
[3] = tested on: RXF 393
[4] = tested on: A498
[5] = tested on: 786-0
[6] = tested on: PC-3
[7] = tested on: BT-549
[8] = tested on: HCT-116
[9] = tested on: OVCAR-3
[10] = tested on: RPMI-8226
[11] = tested on: OVCAR-5
[12] = tested on: SNB-19
[13] = tested on: MCF7
[14] = tested on: NCI-H522
[15] = tested on: EKVX
[16] = tested on: HCT-15
[17] = tested on: K562
[18] = tested on: KM12
[19] = tested on: Hs-578T
[20] = tested on: HOP-92

Row | Structure (SMILES) | GI50 [1] | GI50 [2] | GI50 [3] | GI50 [4] | GI50 [5] | GI50 [6] | GI50 [7] | GI50 [8] | GI50 [9] | GI50 [10] | GI50 [11] | GI50 [12] | GI50 [13] | GI50 [14] | GI50 [15] | GI50 [16] [µM] | GI50 [17] | GI50 [18] | GI50 [19] | GI50 [20]
1 | COc1cc(Cn2c3c(c4c(C(=O)NCCN(C)C)c(O)ccc42)C(=O)c2ccccc2C3=O)cc(OC)c1 | 1.9 µM (inactive) | 1.64 µM (inactive) | 1.68 µM (inactive) | 1.95 µM (inactive) | 0.501 µM (active) | 1.7 µM (inactive) | 2.23 µM (inactive) | 1.76 µM (inactive) | 1.73 µM (inactive) | 1.87 µM (inactive) | 1.67 µM (inactive) | 2.51 µM (inactive) | 2 µM (inactive) | 1.71 µM (inactive) | 1.82 µM (inactive) | 1.88 | 1.37 µM (inactive) | 1.58 µM (inactive) | 1.79 µM (inactive) | 
2 | O=C1CC(Cl)c2c(Cl)sc(Cl)c21 (stereo not drawn) | 2.1 µM (inactive) |  |  | 12.2 µM (inactive) | 1.47 µM (inactive) | 2.2 µM (inactive) | 4.06 µM (inactive) | 1.69 µM (inactive) | 2.31 µM (inactive) | 0.155 µM (active) | 16.2 µM (inactive) | 11.4 µM (inactive) | 0.794 µM (active) | 1.21 µM (inactive) | 3.94 µM (inactive) | 2.02 | 2.85 µM (inactive) | 1.67 µM (inactive) | 7.38 µM (inactive) | 1.74 µM (inactive)
3 | COc1ccc(C(c2ccccc2)N2C(=O)CCC2C(=O)O)cc1OC (stereo not drawn) | 14 µM (inactive) | > 100 µM (inactive) |  | > 100 µM (inactive) | > 100 µM (inactive) | > 100 µM (inactive) | > 100 µM (inactive) | > 100 µM (inactive) | > 100 µM (inactive) | > 100 µM (inactive) | > 100 µM (inactive) | > 100 µM (inactive) | > 100 µM (inactive) | > 100 µM (inactive) | > 100 µM (inactive) | > 100 | > 100 µM (inactive) | > 100 µM (inactive) | > 100 µM (inactive) | > 100 µM (inactive)
4 | S=C1c2ccccc2N=C(NC2CCCC2)C2CSCN12 (stereo not drawn) | 89.7 µM (inactive) | 95.5 µM (inactive) | 91.6 µM (inactive) | 88.9 µM (inactive) | > 100 µM (inactive) | 40.6 µM (inactive) | > 100 µM (inactive) | 80.7 µM (inactive) | 97.1 µM (inactive) | 75.2 µM (inactive) | > 100 µM (inactive) | > 100 µM (inactive) | 67.6 µM (inactive) | 37.5 µM (inactive) | 37.2 µM (inactive) | > 100 | 39.8 µM (inactive) | 20.4 µM (inactive) | 44.4 µM (inactive) | 
5 | Cc1nc2ccc(Cl)cc2c2c1CCN2c1ccccc1 | 14 µM (inactive) | 16.4 µM (inactive) | 3.47 µM (inactive) | 14.8 µM (inactive) | 10.4 µM (inactive) | 10.6 µM (inactive) | 15.3 µM (inactive) | 3.61 µM (inactive) | 10.3 µM (inactive) | 12.4 µM (inactive) |  | 23.5 µM (inactive) | 15.1 µM (inactive) | 11.7 µM (inactive) | 21.2 µM (inactive) | 17.3 | 5.05 µM (inactive) | 17.5 µM (inactive) | 21 µM (inactive) | 8.59 µM (inactive)
6 | O=C(O)C1C2C=CC(O2)C1C(=O)Nc1ccccc1 (stereo not drawn) | > 100 µM (inactive) | > 100 µM (inactive) | > 100 µM (inactive) | > 100 µM (inactive) | > 100 µM (inactive) | > 100 µM (inactive) | > 100 µM (inactive) | > 100 µM (inactive) | > 100 µM (inactive) | > 100 µM (inactive) | > 100 µM (inactive) | > 100 µM (inactive) | > 100 µM (inactive) | > 100 µM (inactive) | > 100 µM (inactive) | > 100 | > 100 µM (inactive) | > 100 µM (inactive) | > 100 µM (inactive) | 
